From PubChem BioAssay AID1224866 (Xiaojiang Lab, Kunming Institute of Botany, CAS, 2016) come the findings set out here.

Common to all, as to assay: nuclear TFEB, TFE3 and cytosolic ZKSCAN3 localization – imaging, HeLa, EGFP fusions (AID 1224866)
The test system of assay [1] is HeLa TFEB-EGFP nuclear translocation, imaging. Particulars: stronger effect = higher value; dose or concentration not given here.
Assay [2] concerns the target Zinc finger protein with KRAB and SCAN domains 3 (Homo sapiens) (UniProt Q9BRR0). The following applies: HeLa EGFP-ZKSCAN3 cytoplasmic translocation; stronger effect = higher value; dose or concentration not given here.
Assay [3] deals with Transcription factor E3 (Homo sapiens) (UniProt P19532). Particulars: HeLa; measured here: TFE3 nuclear translocation; stronger effect = higher value; dose or concentration not given here.

Regarding `CC(=O)O[C@@H]1C(C)=C[C@H]2C(=O)[C@]3(C=C(C)[C@H](OC(=O)c4ccccc4)[C@@]13O)[C@H](C)C[C@@H]1[C@H]2C1(C)C`, the cells with nuclear TFEB-EGFP in assay [1] was 74.5%. In assay [2], the cells with cytosolic EGFP-ZKSCAN3 came to 74.1%. For the same compound, the cells with nuclear EGFP-TFE3 in assay [3] turned out to be 4.6%.

For `CC=C(C)C(=O)O[C@@H]1C(C)=C[C@H]2C(=O)[C@]3(C=C(C)[C@H](O)[C@@]13O)[C@H](C)C[C@@H]1[C@H]2C1(C)C`, in assay [1], the cells with nuclear TFEB-EGFP is 85.6%. In assay [2], this compound registered a cells with cytosolic EGFP-ZKSCAN3 of 83.6%. Moreover, the cells with nuclear EGFP-TFE3 in assay [3] was determined as 5.2%.

`CC=C(C)C(=O)O[C@@H]1C(C)=C[C@H]2C(=O)[C@]3(C=C(C)[C@H](OC(C)=O)[C@@]13O)[C@H](C)C[C@@H]1[C@H]2C1(C)C`: the cells with nuclear TFEB-EGFP in assay [1] was 70.3%. Besides, in assay [2], the cells with cytosolic EGFP-ZKSCAN3 was found to be 75%. The same compound displayed a cells with nuclear EGFP-TFE3 in assay [3] of 4.2%.

With `CCCCCCCCCCCCCCCC(=O)OCC1=C[C@H]2C(=O)[C@]3(C=C(C)[C@H](O)[C@@]3(O)[C@@H]1O)[C@H](C)C[C@@H]1[C@H]2C1(C)C`, in assay [1], the cells with nuclear TFEB-EGFP is 66.6%. In assay [2], this compound gave a cells with cytosolic EGFP-ZKSCAN3 of 74.3%. For the same compound, the cells with nuclear EGFP-TFE3 in assay [3] was 5.1%.

Consider `CC=C(C)C(=O)O[C@H]1C(C)=C[C@]23C(=O)[C@H](C=C(C)[C@@H](O)[C@]12O)[C@H]1[C@@H](C[C@H]3C)C1(C)C`, for which the cells with nuclear TFEB-EGFP in assay [1] was 80.8%. The compound further registered a cells with cytosolic EGFP-ZKSCAN3 in assay [2] of 76.9%. The cells with nuclear EGFP-TFE3 in assay [3] was determined as 5.4%.

Take `CC1=C[C@H]2C(=O)[C@]3(C=C(C)[C@H](OC(=O)c4ccccc4)[C@@]3(O)[C@@H]1O)[C@H](C)C[C@@H]1[C@H]2C1(C)C`: the cells with nuclear TFEB-EGFP in assay [1] is 65.8%. In assay [2], this compound showed a cells with cytosolic EGFP-ZKSCAN3 of 68.4%. The same compound returned a cells with nuclear EGFP-TFE3 in assay [3] of 4%.

As for `CC1=C[C@H]2C(=O)[C@]3(C=C(C)[C@H](O)[C@@]3(O)[C@@H]1OC(=O)c1ccccc1)[C@H](C)C[C@@H]1[C@H]2C1(C)C`, in assay [1], the cells with nuclear TFEB-EGFP was 81.3%. The compound further had a cells with cytosolic EGFP-ZKSCAN3 in assay [2] of 79.2%. For the same compound, in assay [3], the cells with nuclear EGFP-TFE3 is 4.2%.

On to `CCCCCCCCCCCC(=O)O[C@@]12C[C@@H](C)[C@]34C=C(C)[C@H](O)[C@@]3(O)[C@H](O)C(COC(=O)C(C)C(C)C)=C[C@@H](C4=O)[C@@H]1C2(C)C` (stereo not given in full), for which, in assay [1], the cells with nuclear TFEB-EGFP was 62%. The compound also had a cells with cytosolic EGFP-ZKSCAN3 in assay [2] of 67.4%. The cells with nuclear EGFP-TFE3 in assay [3] stood at 3.9%.

With `CCCCCCCCCCCC(=O)O[C@@]12C[C@@H](C)[C@]34C=C(C)[C@H](OC(=O)C(C)C(C)C)[C@@]3(O)[C@H](O)C(CO)=C[C@@H](C4=O)[C@@H]1C2(C)C` (stereo not given in full), the cells with nuclear TFEB-EGFP in assay [1] is 66.1%. The compound further came in with a cells with cytosolic EGFP-ZKSCAN3 in assay [2] of 69.7%. In addition, the cells with nuclear EGFP-TFE3 in assay [3] came to 4.3%.

With `CCCCCCCCCCCCCC(=O)OCC1=C[C@H]2C(=O)[C@]3(C=C(C)[C@H](O)[C@@]3(O)[C@@H]1O)[C@H](C)C[C@@H]1[C@H]2C1(C)C`, the cells with nuclear TFEB-EGFP in assay [1] was 67.2%. Besides, the cells with cytosolic EGFP-ZKSCAN3 in assay [2] was found to be 76.4%. Besides, in assay [3], the cells with nuclear EGFP-TFE3 stood at 4.8%.
